Test results from ChEMBL document CHEMBL1121669, “Nucleosides. 114. 5'-O-Glucuronides of 5-fluorouridine and 5-fluorocytidine. Masked precursors of anticancer nucleosides” (1981).

Tested on: P815
Assay: Cytotoxicity against P815 tumor cell line
Format: functional
Settings: Mus musculus, read-out: ID50 (the source's name)

Row | SMILES | IC50 [µg/mL]
1 | O=C([O-])C1OC(OC[C@H]2OC(n3cc(F)c(=O)[nH]c3=O)[C@H](O)[C@@H]2O)[C@H](O)[C@@H](O)[C@@H]1O.[Na+] (some centres not stated) | 6
2 | Nc1nc(=O)n(C2O[C@H](CO[C@@H]3OC(C(=O)[O-])[C@@H](O)[C@H](O)[C@H]3O)[C@@H](O)[C@H]2O)cc1F.[Na+] (some centres not stated) | 6
